Key:
[1] = cited from earlier work
[2] = tested on: myosatellite cells derived from a rat; assay: Oil red-O staining of oil droplets / count of adipocyte-like cells after adipogenic differentiation culture; format: cell-based
From the text: (§1) The gastrocnemial muscle, the soleus, the anterior tibial muscle, the extensor digitorum longus muscle, and the quadriceps femoris muscle were extracted from the Fischer 344 rat of 10 to 14 weeks old under anesthesia, and minced. The above tissues were subjected to enzymolysis with Protease (Sigma-Aldrich) and subjected to centrifugal treatment to obtain a precipitate. The obtained precipitate was suspended in Dulbecco's Modified Eagle Medium (DMEM) containing 10% horse fetus serum, and seeded on an 8-well slide glass (BD Thermo Science) so that the myosatellite cells are 5×10^4 to 7×10^4 cells/mL.
(§2) Myosatellite cells isolated by F-10 containing 20% cow serum (GIBCO) was cultured for 72 h. Then, the cells were cultured for 72 h. in an adipogenic induction medium (Lonza) containing 0.1% DMSO (Control), 5 μM quercetin, 10 μM quercetin or 50 μM quercetin. Then, the cells were cultured for 72 h. in an adipogenic maintenance medium (Lonza) containing the control, 5 μM quercetin, 10 μM quercetin or 50 μM quercetin.
After the cultured cells were washed in PBS, they were fixed by 10% formalin (Wako Pure Chemical Industries, Ltd.) at room temperature for 10 min. Then, they were reacted with 10% oil red-O solution (Sigma Aldrich) that was dissolved in 2-propanol at room temperature for 30 min.

[3] = tested on: myosatellite cells derived from a rat; assay: Quantification of amount of triglyceride in cells after adipogenic differentiation culture; format: cell-based; conditions: 5, 10, 50 μM vs 0 μM
From the text: as §1, §2
After the cells that were subjected to adipogenic differentiation culture were washed with PBS, a PBS that contains 5% Triton-X 100 was added as a cell lysate, and the cell solution was collected, heated and cooled. After the cells were centrifuged, triglyceride and protein in the supernatant were quantified. The LabAssay™ Triglyceride (Wako Pure Chemical Industries, Ltd.) was used for the quantification of triglyceride. The Pierce BCA Protein Assay Kit (Thermo Scientific) was used for the quantification of protein. […] The results were tested using the Dunnett's test, and the value of 5% or lower was determined to be the significant amount (*: p<0.05 vs 0 μM. †: p<0.05 vs 5 μM).

PPARγ = target: T1, PPARγ (Homo sapiens, UniProt P37231); conditions: read-out: IC50 as PPARγ inhibitor; cited from earlier work
T1 sequence (P37231 1-505): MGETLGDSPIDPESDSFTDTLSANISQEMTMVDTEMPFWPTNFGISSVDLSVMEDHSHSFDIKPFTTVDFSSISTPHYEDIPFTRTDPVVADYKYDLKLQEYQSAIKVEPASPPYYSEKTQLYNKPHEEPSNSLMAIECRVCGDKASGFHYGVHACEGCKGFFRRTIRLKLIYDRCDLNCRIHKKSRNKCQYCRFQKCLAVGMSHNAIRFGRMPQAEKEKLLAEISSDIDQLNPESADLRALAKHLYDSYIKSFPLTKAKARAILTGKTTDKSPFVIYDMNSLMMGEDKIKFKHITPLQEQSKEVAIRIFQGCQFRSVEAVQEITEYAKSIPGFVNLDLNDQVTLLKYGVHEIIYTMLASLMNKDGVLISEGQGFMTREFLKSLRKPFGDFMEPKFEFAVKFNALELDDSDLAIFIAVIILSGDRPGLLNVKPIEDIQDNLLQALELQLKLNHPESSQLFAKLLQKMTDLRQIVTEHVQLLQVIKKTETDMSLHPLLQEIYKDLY

[4] = 5 μM, 72 h adipogenic induction medium then 72 h adipogenic maintenance medium, vs control (0.1% DMSO)
[5] = 10 μM, 72 h induction then 72 h maintenance medium
[6] = 50 μM, 72 h induction then 72 h maintenance medium

SMILES | solubility in water [1] | number of adipocyte-like cells stained by oil red-O [2, 4] | oil droplets stained by oil red-O [2, 4] | number of adipocyte-like cells stained by oil red-O [2, 5] | number of oil droplets stained by oil red-O [2, 5] | number of adipocyte-like cells stained by oil red-O [2, 6] | number of oil droplets stained by oil red-O [2, 6] | amount of protein in the cells in the well [3] | amount of triglyceride corrected by the amount of protein [3] | amount of triglyceride in cells after adipogenic differentiation ([3]; Dunnett's test) | number of adipocyte-like cells stained by oil red-O ([2]; 1 μM, 72 h induction then 72 h maintenance medium) | IC50 (PPARγ) [nM]
O=c1c(O)c(-c2ccc(O)c(O)c2)oc2cc(O)cc(O)c12 [quercetin] | insoluble to water | no significant decrease | the same level of oil droplets as the control | decreased | decreased in a concentration dependent manner | decreased | decreased in a concentration dependent manner | did not change | decreased in a quercetin concentration dependent manner | decreased in a quercetin-concentration dependent manner |  | 
O=C(Nc1ccccc1)c1cc([N+](=O)[O-])ccc1Cl [GW9662, reference compound] |  | did not decrease |  | did not decrease |  |  |  |  |  |  | did not decrease | 3.3
